# In PMC10855164, “Ligand-Based Design of Selective Peptidomimetic uPA and TMPRSS2 Inhibitors with Arg Bioisosteres” (International Journal of Molecular Sciences, 2024):
# Tests used:
# Type in all cases: biochemical
# TMPRSS2 = biological target: T1, TMPRSS2 (Homo sapiens, UniProt O15393); assay: fluorometric enzyme inhibition assay, TMPRSS2 (Boc-Gln-Ala-Arg-AMC); details: for Ki: from IC50 by Cheng-Prusoff, n.a. = not active, <80% inhibition at 20 µM
# T1 construct: purchased Cusabio
# Experimental: (§1) The inhibitory activity of the synthesized compounds towards the respective main- and off-target proteases was measured via fluorometric and colorimetric assays. Thus, fluorogenic AMC- or colorimetric pNA-based substrates with a peptide sequence suitable for the tested protease were utilized (see Supplementary Figure S2). At first, the compounds were screened against […] proteases (uPA, TMPRSS2, matriptase, tPA, thrombin, factor Xa) at 20 µM, and a cut-off value of 80% inhibition at this concentration was set, for the differentiation between nonactive (n.a.) and active inhibitors. Due to the reversible inhibition mechanism of the ketobenzothiazole derivates, the IC50 values were determined with Graphpad Prism 9, and afterwards converted to the corresponding Ki values for an adequate comparison between the inhibitory activities of the compounds toward all tested proteases. The Ki values were calculated using the Cheng–Prusoff equation [43].
# (§2) Fluorometric inhibition assays
# (§3) The inhibitory activities of the compounds against the proteases were determined by enzyme inhibition assays with fluorogenic or colorimetry-based substrates. The fluorescence, caused by cleaved AMC from the fluorogenic substrates (uPA, matriptase, TMPRSS2, thrombin), was measured in white flat-bottom 96-well plates from Greiner Bio-One using a Tecan Infinite F200 Pro plate reader. The absorption, caused by cleaved pNA from colorimetric substrates (factor Xa and tPA), was measured in transparent flat-bottom 96-well plates from Greiner Bio-One using a Tecan Spark 10M plate reader. All measurements with the main-target proteases (uPA and TMRPSS2) were performed as triplicates and with the off-target proteases (matriptase, factor Xa, tPA, thrombin) as duplicates. The substrates and the compounds were prepared as stock solutions in DMSO. Each well contained a total volume of 200 µL, consisting of 185 µL buffer, 5 µL inhibitor in DMSO or pure DMSO as negative control, 5 µL substrate in DMSO and 5 µL enzyme solution in buffer. Dilution series were prepared for the determination of the inhibition constants. The fluorescence signal and absorbance were measured every 30 s for 10 min at 25 or 37 °C with the corresponding excitation/emission (λex = 380 nm / λem = 460 nm) and absorbance (λabs = 405 nm) wavelengths, depending on the targeted protease. IC50 values for the reversible inhibitors were calculated with Graphpad Prism 9 by fitting the remaining enzymatic activity to the four parameter IC50 equation with Y [%] as the residual enzyme activity , Ymax as the maximum value of the dose response curve at inhibitor concentrations [I] = 0 µM, Ymin as the minimum value at high inhibitor concentrations and s as the hill coefficient.[1] The fluorescence progress curves and sigmoidal dose-response curve for inhibition of uPa by compound 38 is shown exemplary in Figure S2. […]
# (§4) Due to the dependence of the IC50 value on the substrate affinity and concentration, the Ki values were calculated with the Cheng-Prusoff equation, using the final substrate concentration [S] and the Michaelis-Menten constant KM, (2) for appropriate comparison of the inhibitory activities to the other enzymes and inhibitors.[1]
# (§5) KM values were determined by fitting to the Michaelis-Menten equation using Graphpad Prism 9 with v [ΔF/min] as the substrate hydrolysis rate, vmax as the maximum slope of the dose-response curve, and the substrate [S] concentration.[1] The different substrates were serially diluted in DMSO. The measurement was done in analogy to the determination of the inhibitory activity, but with 5 µL pure DMSO instead of inhibitor solution. […]
# (§6) The following buffers and substrates were used for the respective assays: uPA (50 mM Tris HCl pH = 7.9, 150 mM […]
# (§7) TMPRSS2 (25 mM Tris HCl pH = 8.0, 150 mM NaCl, 5 mM CaCl2, 0.001% TX-100, 100 µM Boc-Gln-Ala-Arg-AMC (KM: 68.63 ± 6.64 µM), 25 °C, 3 nM TMPRSS2)[3]; matriptase (50 mM Tris HCl pH = 8.0, 150 mM NaCl, 5 mM CaCl2, […]
# tPA = biological target: T2, tPA (Homo sapiens, UniProt P00750); assay: colorimetric enzyme inhibition assay, tPA (N-methylsulfonyl-D-Phe-Gly-Arg-pNA); details: from IC50 by Cheng-Prusoff; n.a. = not active, <80% inhibition at 20 µM
# T2 construct: purchased Sigma Aldrich
# T2 sequence (P00750 36-562): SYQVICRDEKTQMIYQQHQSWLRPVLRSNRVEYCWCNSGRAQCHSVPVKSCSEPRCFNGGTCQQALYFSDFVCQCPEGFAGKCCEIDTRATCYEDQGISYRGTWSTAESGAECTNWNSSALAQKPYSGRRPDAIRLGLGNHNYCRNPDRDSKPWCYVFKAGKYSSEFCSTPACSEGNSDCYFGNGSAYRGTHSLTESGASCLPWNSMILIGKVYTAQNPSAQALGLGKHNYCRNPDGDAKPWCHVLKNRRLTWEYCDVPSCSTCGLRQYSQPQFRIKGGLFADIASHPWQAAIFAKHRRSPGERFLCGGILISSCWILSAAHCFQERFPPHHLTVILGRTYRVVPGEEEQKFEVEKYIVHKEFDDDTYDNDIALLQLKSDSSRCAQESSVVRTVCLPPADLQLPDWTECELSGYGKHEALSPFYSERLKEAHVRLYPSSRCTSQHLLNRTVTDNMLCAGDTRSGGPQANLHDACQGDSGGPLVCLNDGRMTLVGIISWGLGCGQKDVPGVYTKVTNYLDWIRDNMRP
# Experimental: as §1, §2, §3, §4
# KM values were determined by fitting to the Michaelis-Menten equation using Graphpad Prism 9 with v [ΔF/min] as the substrate hydrolysis rate, vmax as the maximum slope of the dose-response curve, and the substrate [S] concentration.[1] The different substrates were serially diluted in DMSO. […]
# thrombin = biological target: T3, thrombin (Homo sapiens, UniProt P00734); assay: fluorometric enzyme inhibition assay, thrombin (Z-Gly-Gly-Arg-AMC); details: from IC50 by Cheng-Prusoff; n.a. = not active, <80% inhibition at 20 µM
# T3 construct: purchased Bio-techne
# Experimental: as §1, §2, §3, §4, §5, §6, §7
# factor Xa = biological target: T4, factor Xa (Homo sapiens, UniProt P00742); assay: colorimetric enzyme inhibition assay, factor Xa (Z-D-Arg-Gly-Arg-pNA); details: from IC50 by Cheng-Prusoff; n.a. = not active, <80% inhibition at 20 µM
# T4 construct: purchased Bio-techne
# T4 sequence (P00742 235-488 limits assumed): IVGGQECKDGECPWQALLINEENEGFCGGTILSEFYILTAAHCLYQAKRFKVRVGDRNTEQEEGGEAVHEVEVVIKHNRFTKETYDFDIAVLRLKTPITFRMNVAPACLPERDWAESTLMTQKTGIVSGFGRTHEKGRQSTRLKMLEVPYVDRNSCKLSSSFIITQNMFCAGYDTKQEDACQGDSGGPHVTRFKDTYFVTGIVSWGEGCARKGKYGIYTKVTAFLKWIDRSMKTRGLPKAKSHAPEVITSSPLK
# T4 sequence (P00742 41-179 partner limits assumed): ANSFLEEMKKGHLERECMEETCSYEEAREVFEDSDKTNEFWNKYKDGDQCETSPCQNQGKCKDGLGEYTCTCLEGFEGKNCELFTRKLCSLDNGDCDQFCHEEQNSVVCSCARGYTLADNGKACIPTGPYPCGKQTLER
# Experimental: as §1, §2, §3, §4, §5, §6, §7
# T1 sequence (O15393 whole entry): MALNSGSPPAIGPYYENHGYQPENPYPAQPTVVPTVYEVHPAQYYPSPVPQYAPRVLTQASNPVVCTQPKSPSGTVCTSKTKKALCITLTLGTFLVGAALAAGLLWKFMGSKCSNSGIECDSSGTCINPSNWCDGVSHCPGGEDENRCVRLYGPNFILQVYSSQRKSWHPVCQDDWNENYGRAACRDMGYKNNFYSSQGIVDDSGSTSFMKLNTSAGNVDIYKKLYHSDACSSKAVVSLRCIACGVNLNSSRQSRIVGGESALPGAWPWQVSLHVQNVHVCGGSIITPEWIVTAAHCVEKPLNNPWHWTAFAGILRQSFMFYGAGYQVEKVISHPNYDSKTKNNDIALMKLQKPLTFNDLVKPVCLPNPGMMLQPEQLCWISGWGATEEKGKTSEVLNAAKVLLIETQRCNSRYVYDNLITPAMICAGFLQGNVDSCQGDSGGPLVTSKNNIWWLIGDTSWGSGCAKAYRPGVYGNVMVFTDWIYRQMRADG
SMILES,Ki (TMPRSS2),Selectivity index [SI] TMPRSS2 (TMPRSS2; quotient Ki TMPRSS2 / Ki uPA),Ki tPA (tPA),Ki Thrombin (thrombin),Ki Factor Xa (factor Xa)
CC(=O)N[C@@H](Cc1ccccc1)C(=O)N[C@@H](Cc1ccc(NC(=N)N)cc1)C(=O)c1nc2ccccc2s1 [Compound 33],0.005 ± 0.002 µM,,,,
CC(=O)NCC(=O)NC(C(=O)NC(C)C(=O)NC(CC1CCC(NC(=N)N)CC1)C(=O)c1nc2ccccc2s1)C(C)O (stereo not drawn) [Compound 38],0.073 ± 0.016 µM,1.8,did not inhibit,did not inhibit,did not inhibit
